Biological target: mushroom tyrosinase
Experiment: spectrophotometric dopachrome assay (L-DOPA substrate, […] nm)
Type: biochemical

C=C1C(=O)OC2C=C(C)CC3C=C(CCC=C(C)CCC12)C(=O)O3 (stereo not shown) [ovatodiolide]
IC50: 253 µM

From article PMC3382824, “Antioxidative Characteristics of Anisomeles indica Extract and Inhibitory Effect of Ovatodiolide on Melanogenesis” (2012)
